Patent US20070049564A1 (Wyeth, priority 2005, published 2007)
Values after ≈ are worked out from the molar mass of the structure shown. Read-outs that look alike come from different tables or passages of the source.

Assays:
E. coli GC 2236 = assay: MIC, broth microdilution; conditions: Escherichia coli
E. coli GC 2233 = assay: MIC, broth microdilution; conditions: Escherichia coli
E. coli GC 2234 = assay: MIC, broth microdilution; conditions: Escherichia coli
E. coli GC 2272 = assay: MIC, broth microdilution; conditions: Escherichia coli
E. coli GC 6465 = assay: MIC, broth microdilution; conditions: Escherichia coli
E. coli GC 1073 = assay: MIC, broth microdilution; conditions: Escherichia coli
S. aureus GC 1131 = assay: MIC, broth microdilution; conditions: Staphylococcus aureus
S. aureus GC 6466 = assay: MIC, broth microdilution; conditions: Staphylococcus aureus
S. aureus GC 1079 = assay: MIC, broth microdilution; conditions: Staphylococcus aureus
S. aureus GC 4536 = assay: MIC, broth microdilution; conditions: Staphylococcus aureus
S. aureus GC 6469 = assay: MIC, broth microdilution; conditions: Staphylococcus aureus
S. epidermidis GC 4935 = assay: MIC, broth microdilution; conditions: Staphylococcus epidermidis
E. faecalis GC 4555 = assay: MIC, broth microdilution; conditions: Enterococcus faecalis
E. faecalis GC 2265 = assay: MIC, broth microdilution; conditions: Enterococcus faecalis
E. faecium GC 2243 = assay: MIC, broth microdilution; conditions: Enterococcus faecium
S. pneumoniae+ GC 4465 = assay: MIC, broth microdilution; conditions: Streptococcus pneumoniae
S. pyogenes GC 4563 = assay: MIC, broth microdilution; conditions: Streptococcus pyogenes
c. albicans GC 3066 = assay: MIC, broth microdilution
E. coli = assay: Range of MIC for E. coli strains; conditions: Escherichia coli
Staph. = assay: Range of MIC for Staph. strains, including MRSA; conditions: Staphylococcus aureus

MIC (E. coli GC 2236; GC2236, read-out: MINIMAL INHIBITORY CONCENTRATION MIC, Human Serum): 32 µg/mL (≈ 40.4 µM) | MIC (E. coli GC 2236; GC2236, read-out: MINIMAL INHIBITORY CONCENTRATION MIC, Mouse Serum): 2 µg/mL (≈ 2.53 µM) | MIC (E. coli GC 2236; GC2236, read-out: MINIMAL INHIBITORY CONCENTRATION MIC, Water): > 64 µg/mL | MIC (E. coli GC 2233; GC2233, read-out: MINIMAL INHIBITORY CONCENTRATION MIC, Human Serum): 32 µg/mL (≈ 40.4 µM) | MIC (E. coli GC 2233; GC2233, read-out: MINIMAL INHIBITORY CONCENTRATION MIC, Mouse Serum): 2 µg/mL (≈ 2.53 µM) | MIC (E. coli GC 2233; GC2233, read-out: MINIMAL INHIBITORY CONCENTRATION MIC, Water): > 64 µg/mL | MIC (E. coli GC 2234; GC2234, read-out: MINIMAL INHIBITORY CONCENTRATION MIC, Human Serum): 32 µg/mL (≈ 40.4 µM) | MIC (E. coli GC 2234; GC2234, read-out: MINIMAL INHIBITORY CONCENTRATION MIC, Mouse Serum): 1 µg/mL (≈ 1.26 µM) | MIC (E. coli GC 2234; GC2234, read-out: MINIMAL INHIBITORY CONCENTRATION MIC, Water): > 64 µg/mL | MIC (E. coli GC 2272; GC2272, read-out: MINIMAL INHIBITORY CONCENTRATION MIC, Human Serum): 32 µg/mL (≈ 40.4 µM) | MIC (E. coli GC 2272; GC2272, read-out: MINIMAL INHIBITORY CONCENTRATION MIC, Mouse Serum): 2 µg/mL (≈ 2.53 µM) | MIC (E. coli GC 2272; GC2272, read-out: MINIMAL INHIBITORY CONCENTRATION MIC, Water): > 64 µg/mL | MIC (E. coli GC 6465; GC6465, read-out: MINIMAL INHIBITORY CONCENTRATION MIC, Human Serum): 32 µg/mL (≈ 40.4 µM) | MIC (E. coli GC 6465; GC6465, read-out: MINIMAL INHIBITORY CONCENTRATION MIC, Mouse Serum): 4 µg/mL (≈ 5.05 µM) | MIC (E. coli GC 6465; GC6465, read-out: MINIMAL INHIBITORY CONCENTRATION MIC, Water): > 64 µg/mL | MIC (E. coli GC 1073; GC1073, read-out: MINIMAL INHIBITORY CONCENTRATION MIC, Human Serum): 64 µg/mL (≈ 80.8 µM) | MIC (E. coli GC 1073; GC1073, read-out: MINIMAL INHIBITORY CONCENTRATION MIC, Mouse Serum): 2 µg/mL (≈ 2.53 µM) | MIC (E. coli GC 1073; GC1073, read-out: MINIMAL INHIBITORY CONCENTRATION MIC, Water): > 64 µg/mL | MIC (S. aureus GC 1131; GC1131, read-out: MINIMAL INHIBITORY CONCENTRATION MIC, Human Serum): 0.5 µg/mL (≈ 0.631 µM) | MIC (S. aureus GC 1131; GC1131, read-out: MINIMAL INHIBITORY CONCENTRATION MIC, Mouse Serum): 0.5 µg/mL (≈ 0.631 µM) | MIC (S. aureus GC 1131; GC1131, read-out: MINIMAL INHIBITORY CONCENTRATION MIC, Water): 1 µg/mL (≈ 1.26 µM) | MIC (S. aureus GC 6466; GC6466, read-out: MINIMAL INHIBITORY CONCENTRATION MIC, Human Serum): 0.25 µg/mL (≈ 0.316 µM) | MIC (S. aureus GC 6466; GC6466, read-out: MINIMAL INHIBITORY CONCENTRATION MIC, Mouse Serum): 0.25 µg/mL (≈ 0.316 µM) | MIC (S. aureus GC 6466; GC6466, read-out: MINIMAL INHIBITORY CONCENTRATION MIC, Water): 1 µg/mL (≈ 1.26 µM) | MIC (S. aureus GC 1079; GC1079, read-out: MINIMAL INHIBITORY CONCENTRATION MIC, Human Serum): 1 µg/mL (≈ 1.26 µM) | MIC (S. aureus GC 1079; GC1079, read-out: MINIMAL INHIBITORY CONCENTRATION MIC, Mouse Serum): 0.5 µg/mL (≈ 0.631 µM) | MIC (S. aureus GC 1079; GC1079, read-out: MINIMAL INHIBITORY CONCENTRATION MIC, Water): 2 µg/mL (≈ 2.53 µM) | MIC (S. aureus GC 4536; GC4536, read-out: MINIMAL INHIBITORY CONCENTRATION MIC, Human Serum): 0.5 µg/mL (≈ 0.631 µM) | MIC (S. aureus GC 4536; GC4536, read-out: MINIMAL INHIBITORY CONCENTRATION MIC, Mouse Serum): 0.5 µg/mL (≈ 0.631 µM) | MIC (S. aureus GC 4536; GC4536, read-out: MINIMAL INHIBITORY CONCENTRATION MIC, Water): 1 µg/mL (≈ 1.26 µM) | MIC (S. aureus GC 6469; GC6469, read-out: MINIMAL INHIBITORY CONCENTRATION MIC, Human Serum): 1 µg/mL (≈ 1.26 µM) | MIC (S. aureus GC 6469; GC6469, read-out: MINIMAL INHIBITORY CONCENTRATION MIC, Mouse Serum): 1 µg/mL (≈ 1.26 µM) | MIC (S. aureus GC 6469; GC6469, read-out: MINIMAL INHIBITORY CONCENTRATION MIC, Water): 2 µg/mL (≈ 2.53 µM) | MIC (S. epidermidis GC 4935; GC4935, read-out: MINIMAL INHIBITORY CONCENTRATION MIC, Human Serum): 2 µg/mL (≈ 2.53 µM) | MIC (S. epidermidis GC 4935; GC4935, read-out: MINIMAL INHIBITORY CONCENTRATION MIC, Mouse Serum): 2 µg/mL (≈ 2.53 µM) | MIC (S. epidermidis GC 4935; GC4935, read-out: MINIMAL INHIBITORY CONCENTRATION MIC, Water): 4 µg/mL (≈ 5.05 µM) | MIC (E. faecalis GC 4555; GC4555, read-out: MINIMAL INHIBITORY CONCENTRATION MIC, Human Serum): 8 µg/mL (≈ 10.1 µM) | MIC (E. faecalis GC 4555; GC4555, read-out: MINIMAL INHIBITORY CONCENTRATION MIC, Mouse Serum): 1 µg/mL (≈ 1.26 µM) | MIC (E. faecalis GC 4555; GC4555, read-out: MINIMAL INHIBITORY CONCENTRATION MIC, Water): 16 µg/mL (≈ 20.2 µM) | MIC (E. faecalis GC 2265; GC2265, read-out: MINIMAL INHIBITORY CONCENTRATION MIC, Human Serum): 4 µg/mL (≈ 5.05 µM) | MIC (E. faecalis GC 2265; GC2265, read-out: MINIMAL INHIBITORY CONCENTRATION MIC, Mouse Serum): 1 µg/mL (≈ 1.26 µM) | MIC (E. faecalis GC 2265; GC2265, read-out: MINIMAL INHIBITORY CONCENTRATION MIC, Water): 8 µg/mL (≈ 10.1 µM) | MIC (E. faecium GC 2243; GC2243, read-out: MINIMAL INHIBITORY CONCENTRATION MIC, Human Serum): 4 µg/mL (≈ 5.05 µM) | MIC (E. faecium GC 2243; GC2243, read-out: MINIMAL INHIBITORY CONCENTRATION MIC, Mouse Serum): 1 µg/mL (≈ 1.26 µM) | MIC (E. faecium GC 2243; GC2243, read-out: MINIMAL INHIBITORY CONCENTRATION MIC, Water): 4 µg/mL (≈ 5.05 µM) | MIC (S. pneumoniae+ GC 4465; read-out: MINIMAL INHIBITORY CONCENTRATION MIC, Human Serum): 2 µg/mL (≈ 2.53 µM) | MIC (S. pneumoniae+ GC 4465; read-out: MINIMAL INHIBITORY CONCENTRATION MIC, Mouse Serum): 1 µg/mL (≈ 1.26 µM) | MIC (S. pneumoniae+ GC 4465; read-out: MINIMAL INHIBITORY CONCENTRATION MIC, Water): 1 µg/mL (≈ 1.26 µM) | MIC (S. pyogenes GC 4563; GC4563, read-out: MINIMAL INHIBITORY CONCENTRATION MIC, Human Serum): 2 µg/mL (≈ 2.53 µM) | MIC (S. pyogenes GC 4563; GC4563, read-out: MINIMAL INHIBITORY CONCENTRATION MIC, Mouse Serum): 0.5 µg/mL (≈ 0.631 µM) | MIC (S. pyogenes GC 4563; GC4563, read-out: MINIMAL INHIBITORY CONCENTRATION MIC, Water): 2 µg/mL (≈ 2.53 µM) | MIC (c. albicans GC 3066; Candida albicans, GC3066, read-out: MINIMAL INHIBITORY CONCENTRATION MIC): > 64 µg/mL | MINIMAL INHIBITORY CONCENTRATION MIC (c. albicans GC 3066; Human Serum): >64 UG/ML | MINIMAL INHIBITORY CONCENTRATION MIC (c. albicans GC 3066; Mouse Serum): >64 UG/ML | MIC (E. coli; 20 h, read-out: Range of MIC, E. coli (Mouse Serum)): 1 to 2 µg/mL (≈ 1.26 to 2.53 µM) | MIC (E. coli; read-out: Minimum inhibitory concentration (MIC), E. coli (Human Serum)): 32 to 64 µg/mL (≈ 40.4 to 80.8 µM) | MIC (E. coli; read-out: Minimum inhibitory concentration (MIC), E. coli (water)): > 64 µg/mL | MIC (E. coli; read-out: Range of MIC, E. coli (Water)): > 64 µg/mL | MIC (Staph.; MRSA, read-out: Range of MIC, Staph (Mouse Serum)): 0.25 to 2 µg/mL (≈ 0.316 to 2.53 µM) | MIC (Staph.; MRSA, read-out: Range of MIC, Staph (Water)): 1 to 4 µg/mL (≈ 1.26 to 5.05 µM) | MIC (Staph.; read-out: Minimum inhibitory concentration (MIC), Staph (Human Serum)): 0.25 to 2 µg/mL (≈ 0.316 to 2.53 µM) | MIC (Staph.; read-out: Minimum inhibitory concentration (MIC), Staph (Water)): 1 to 4 µg/mL (≈ 1.26 to 5.05 µM)
Compound: Cc1cc(C)cc(C(=O)OCOC(=O)N(CC(=O)Nc2cc(N(C)C)c3c(c2O)C(=O)C2=C(O)[C@]4(O)C(=O)C(C(N)=O)=C(O)[C@@H](N(C)C)[C@@H]4C[C@@H]2C3)C(C)(C)C)c1 [Example 51]
